ChEMBL document CHEMBL3351714 (Bioorg Med Chem, 2014)

Columns and labels:
D(1A) dopamine receptor [1] = biological target: T1, D(1A) dopamine receptor (Homo sapiens, UniProt P21728); test: Displacement of [3H]SCH23390 from D1 receptor (unknown origin) transfected in HEK293T cells at 10 uM after 50 mins by liquid scintillation counting analysis; type: cell-based; details: HEK-293T
D(1A) dopamine receptor [2] = biological target: T1, D(1A) dopamine receptor; test: Displacement of [3H]SCH23390 from D1 receptor (unknown origin) transfected in HEK293T cells after 50 mins by liquid scintillation counting analysis; type: cell-based, HEK-293T
D(2) dopamine receptor [3] = biological target: T2, D(2) dopamine receptor (Homo sapiens, UniProt P14416); test: Displacement of [3H]Spiperone from D2 receptor (unknown origin) transfected in HEK293T cells at 10 uM after 50 mins by liquid scintillation counting analysis; type: cell-based; details: HEK-293T
D(2) dopamine receptor [4] = biological target: T2, D(2) dopamine receptor; test: Displacement of [3H]Spiperone from D2 receptor (unknown origin) transfected in HEK293T cells after 50 mins by liquid scintillation counting analysis; type: cell-based, HEK-293T
[5] = biological target: T3, 5-hydroxytryptamine receptor 1A (Homo sapiens) (UniProt P08908); test: Displacement of [3H]8-OH-DPAT from 5HT1A receptor (unknown origin) transfected in HEK293T cells at 10 uM after 50 mins by liquid scintillation counting analysis; type: cell-based; details: HEK-293T
T3 sequence (whole entry): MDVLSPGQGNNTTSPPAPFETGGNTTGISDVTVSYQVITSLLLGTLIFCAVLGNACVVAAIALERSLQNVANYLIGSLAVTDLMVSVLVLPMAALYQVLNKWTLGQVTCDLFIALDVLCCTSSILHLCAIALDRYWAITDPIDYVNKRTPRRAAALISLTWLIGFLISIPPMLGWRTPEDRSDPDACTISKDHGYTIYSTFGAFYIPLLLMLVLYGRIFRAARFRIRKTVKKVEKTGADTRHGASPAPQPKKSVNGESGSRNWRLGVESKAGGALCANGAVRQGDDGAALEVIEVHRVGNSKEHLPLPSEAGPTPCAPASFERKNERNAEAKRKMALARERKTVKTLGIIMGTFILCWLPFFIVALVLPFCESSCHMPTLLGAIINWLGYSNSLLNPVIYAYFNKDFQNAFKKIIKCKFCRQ

[6] = biological target: 5-hydroxytryptamine receptor 2A (Homo sapiens) (UniProt P28223); test: Displacement of [3H]Ketanserin from 5HT2A receptor (unknown origin) transfected in HEK293T cells at 10 uM after 15 mins by liquid scintillation counting analysis; type: cell-based; details: HEK-293T
D(3) dopamine receptor = D(3) dopamine receptor (Homo sapiens, UniProt P35462); test: Displacement of [3H]Spiperone from D3 receptor (unknown origin) transfected in HEK293T cells after 50 mins by liquid scintillation counting analysis; type: cell-based, HEK-293T
D(1A) dopamine receptor [7] = biological target: T1, D(1A) dopamine receptor; test: Antagonist activity at D1 receptor (unknown origin) after 40 mins by [35S]GTP-gammaS binding assay in presence of SKF38393; type: functional
D(2) dopamine receptor [8] = biological target: T2, D(2) dopamine receptor; test: Antagonist activity at D2 receptor (unknown origin) after 40 mins by [35S]GTP-gammaS binding assay in presence of quinpirole; type: functional
[9] = biological target: T4, 5-hydroxytryptamine receptor 1A (Homo sapiens, UniProt P08908); test: Agonist activity at 5HT1A receptor (unknown origin) after 20 mins by [35S]GTP-gammaS binding assay; type: functional
T4 sequence (P08908 whole entry): T3 sequence (whole entry)

[10] = biological target: T4, 5-hydroxytryptamine receptor 1A; test: Displacement of [3H]8-OH-DPAT from 5HT1A receptor (unknown origin) transfected in HEK293T cells after 50 mins by liquid scintillation counting analysis; type: cell-based, HEK-293T
D(1A) dopamine receptor [11] = biological target: T1, D(1A) dopamine receptor; test: Agonist activity at D1 receptor (unknown origin) after 40 mins by [35S]GTP-gammaS binding assay; type: functional

T1 sequence (P21728 whole entry): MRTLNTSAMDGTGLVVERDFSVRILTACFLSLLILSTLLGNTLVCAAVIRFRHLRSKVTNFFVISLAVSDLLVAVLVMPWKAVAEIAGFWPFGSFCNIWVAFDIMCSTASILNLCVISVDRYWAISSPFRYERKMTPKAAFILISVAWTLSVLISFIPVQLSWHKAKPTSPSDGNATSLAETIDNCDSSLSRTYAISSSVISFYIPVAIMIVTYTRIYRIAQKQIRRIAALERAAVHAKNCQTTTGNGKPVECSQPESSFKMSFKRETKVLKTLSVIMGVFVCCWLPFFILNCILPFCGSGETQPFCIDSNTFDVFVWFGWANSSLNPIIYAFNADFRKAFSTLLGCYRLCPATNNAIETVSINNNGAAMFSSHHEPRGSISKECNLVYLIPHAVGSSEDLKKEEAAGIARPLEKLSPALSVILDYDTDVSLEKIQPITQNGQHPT
Chain of D(3) dopamine receptor (P35462 whole entry): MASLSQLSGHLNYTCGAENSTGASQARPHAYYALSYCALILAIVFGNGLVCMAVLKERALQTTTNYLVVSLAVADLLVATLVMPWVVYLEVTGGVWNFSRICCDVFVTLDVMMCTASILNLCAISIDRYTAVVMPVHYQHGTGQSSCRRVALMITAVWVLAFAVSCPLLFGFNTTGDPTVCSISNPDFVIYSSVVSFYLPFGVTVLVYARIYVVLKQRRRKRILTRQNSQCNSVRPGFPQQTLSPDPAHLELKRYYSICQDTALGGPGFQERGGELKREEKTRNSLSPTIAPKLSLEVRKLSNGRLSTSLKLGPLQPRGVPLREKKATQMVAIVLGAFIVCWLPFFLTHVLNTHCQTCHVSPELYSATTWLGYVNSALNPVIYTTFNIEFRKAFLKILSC
Chain of 5-hydroxytryptamine receptor 2A (Homo sapiens) (P28223 whole entry): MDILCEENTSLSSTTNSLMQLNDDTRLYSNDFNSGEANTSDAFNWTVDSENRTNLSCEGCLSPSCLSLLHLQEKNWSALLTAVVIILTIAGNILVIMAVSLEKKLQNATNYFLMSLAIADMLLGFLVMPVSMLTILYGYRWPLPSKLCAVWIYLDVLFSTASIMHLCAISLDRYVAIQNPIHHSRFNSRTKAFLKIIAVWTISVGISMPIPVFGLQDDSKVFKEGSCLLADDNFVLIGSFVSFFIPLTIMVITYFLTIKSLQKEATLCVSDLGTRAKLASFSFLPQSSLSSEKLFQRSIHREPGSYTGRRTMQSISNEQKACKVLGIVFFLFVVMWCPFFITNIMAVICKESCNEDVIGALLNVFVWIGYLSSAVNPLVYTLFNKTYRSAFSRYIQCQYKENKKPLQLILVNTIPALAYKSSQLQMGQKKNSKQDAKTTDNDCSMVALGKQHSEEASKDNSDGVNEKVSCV
T2 sequence (P14416 whole entry): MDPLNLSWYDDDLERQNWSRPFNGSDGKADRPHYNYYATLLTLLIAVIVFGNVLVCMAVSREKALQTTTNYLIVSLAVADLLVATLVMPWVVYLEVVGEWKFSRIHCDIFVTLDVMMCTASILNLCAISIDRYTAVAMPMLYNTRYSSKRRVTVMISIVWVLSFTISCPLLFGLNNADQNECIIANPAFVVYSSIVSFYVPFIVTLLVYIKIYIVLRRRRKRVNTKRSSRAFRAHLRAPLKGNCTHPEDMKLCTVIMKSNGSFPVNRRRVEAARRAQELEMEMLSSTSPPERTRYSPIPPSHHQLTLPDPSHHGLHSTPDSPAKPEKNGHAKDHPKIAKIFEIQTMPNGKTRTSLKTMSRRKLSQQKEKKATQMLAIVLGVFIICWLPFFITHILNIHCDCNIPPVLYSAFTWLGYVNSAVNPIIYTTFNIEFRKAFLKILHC

Structure (SMILES) | inhibition (D(1A) dopamine receptor [1]) | Ki (D(1A) dopamine receptor [2]) | inhibition (D(2) dopamine receptor [3]) | Ki (D(2) dopamine receptor [4]) | inhibition [5] | inhibition [6] | Ki (D(3) dopamine receptor) | IC50 (D(1A) dopamine receptor [7]) | IC50 (D(2) dopamine receptor [8]) | EC50 [9] | Ki [10] | EC50 (D(1A) dopamine receptor [11])
COc1cc2c(cc1O)[C@@H]1Cc3sc(CCCl)cc3CN1CC2 | 96.7% | 16.4 nM | 98.4% | 34.4 nM | 90.8% | 34.8% |  |  |  |  |  | 
CCc1cc2c(s1)C[C@H]1c3cc(O)c(OC)cc3CCN1C2 | 98.2% | 26.3 nM | 98.5% | 40.8 nM | 92.1% | 45.1% |  |  |  |  |  | 
COc1cc2c(cc1O)[C@@H]1Cc3sc(CC(C)C)cc3CN1CC2 | 97.6% | 128 nM |  | 7.54 nM | 83.7% | 50.3% | 19.9 nM | 2010 nM | 160 nM | 590 nM |  | 
CCCCCc1cc2c(s1)C[C@H]1c3cc(O)c(OC)cc3CCN1C2 | 94.7% | 133 nM | 103% | 46.7 nM | 81.7% | 45.9% |  |  |  |  |  | 
CCCCc1cc2c(s1)C[C@H]1c3cc(O)c(OC)cc3CCN1C2 | 98.6% | 62.2 nM | 99.5% | 17.6 nM | 90% | 53.3% | 39.9 nM | 600 nM | 910 nM | 850 nM |  | 
COc1cc2c(cc1O)[C@@H]1Cc3sc(CCCCCl)cc3CN1CC2 | 91.1% | 719 nM | 103% | 12 nM | 91.9% | 39.6% |  |  |  |  | 655 nM | 
COc1cc2c(cc1O)[C@@H]1Cc3sc(CCCCl)cc3CN1CC2 | 94.3% | 77 nM | 97.2% | 18.4 nM | 92.2% | 62.1% |  |  |  |  |  | 
COc1cc2c(cc1O)[C@@H]1Cc3sc(CC(C)Cl)cc3CN1CC2 (some centres undefined) | 91.5% | 45.8 nM | 105% | 16.5 nM | 91.6% | 52.1% |  |  |  |  | 285 nM | 
CCC(C)Cc1cc2c(s1)C[C@H]1c3cc(O)c(OC)cc3CCN1C2 (some centres undefined) | 92% | 403 nM | 102% | 29.1 nM | 69.4% | 33.4% |  |  |  |  |  | 
COc1cc2c(cc1O)[C@@H]1Cc3sc(CC4CCC4)cc3CN1CC2 | 97.1% | 379 nM | 98.7% | 34.2 nM | 93.7% | 44.9% |  |  |  |  | 778 nM | 
COc1cc2c(cc1O)[C@@H]1Cc3sc(CCCC(C)C)cc3CN1CC2 | 68.1% |  | 89% |  | 36.3% | 34.9% |  |  |  |  |  | 
COc1cc2c(cc1O)[C@@H]1Cc3ccc(O)c(OC)c3CN1CC2 [STEPHOLIDINE] |  | 12.3 nM |  | 105 nM |  |  | 90 nM |  | 4380 nM |  |  | 23 nM
COc1cc2c(cc1O)[C@@H]1Cc3sc(CC(C)(C)C)cc3CN1CC2 | 93.8% | 634 nM | 97% | 190 nM | 79.8% | 19.3% |  |  |  |  |  | 
COc1cc2c(cc1O)[C@@H]1Cc3sc(CC4CC4)cc3CN1CC2 | 96.8% | 66.2 nM | 99% | 11.5 nM | 96.1% | 39.3% |  |  |  |  | 175 nM | 
CCCc1cc2c(s1)C[C@H]1c3cc(O)c(OC)cc3CCN1C2 | 98.2% | 61.7 nM | 96.3% | 38.6 nM | 85.3% | 29.6% |  |  |  |  |  | 
COc1cc2c(cc1O)[C@@H]1Cc3sc(CCC(C)C)cc3CN1CC2 | 88.8% |  | 90.5% | 79.5 nM | 86.9% | 50.5% |  |  |  |  |  | 
COc1cc2c(cc1O)[C@@H]1Cc3sccc3CN1CC2 | 98.1% | 87 nM | 95.8% | 88 nM | 89.7% | 82.3% |  |  |  |  |  | 
